These results are taken from PMC11215307, “Targeting dermatophyte Cdc42 and Rac GTPase signaling to hinder hyphal elongation and virulence” (iScience, 2024).

Assay [1] has as its system T. rubrum conidial germination. The experiment in a line: T. rubrum conidia germination assay. It is filed as cell-based, Trichophyton rubrum. The conditions noted are these: for Effect on conidial germination in T. rubrum: in cellulo screen of small GTPase inhibitors; for IC50: overnight incubation at 28°C in Sabouraud medium, calcofluor white staining. On the procedure: Fungal conidia (2 × 10^6) were subjected to an overnight incubation at 28°C in Sabouraud medium, supplemented with 1% DMSO (control) or the Rac and/or Cdc42 inhibitors; 10, 32, and 100 μM EHop-016; 100, 320, and 1000 μM AZA1; 10, 32, and 100 μM EHT1864; 10, 100, and 1000 μM CASIN; 200, 500, and 1000 μM NSC23766; 20, 200, and 2000 μM ketorolac; 100 μM MBQ-167; 1 and 10 μM ML-141; 1000 μM ZCL278; and 50 μM ITX3. Following the incubation, the fungal conidia were washed twice with saline and then stained with 0.2 mM calcofluor white. The germinated and ungerminated conidia were subsequently observed and counted under a fluorescent microscope (Olympus BX53).

For assay [2], the system named is T. rubrum mycelial growth. The experiment in a line: Mycelial growth inhibition on modified 1/10 Sabouraud glucose agar. The conditions noted are these: in cellulo screen of small GTPase inhibitors. Type of assay: cell-based, Trichophyton rubrum. On the procedure: Trichophyton rubrum CBS118892, Escherichia coli BL21, and Agrobacterium tumefaciens EHA105 were used.[74]^,[78]^,[79] E. coli BL21 was cultured in LB medium with appropriate antibiotics at 37°C. A. tumefaciens was cultured in LB or Agrobacterium induction medium supplemented with 0.2 mM acetosyringone at 28°C.[73] T. rubrum was cultured at 28°C. Conidia of T. rubrum were prepared using a previously described method.[80] Sabouraud agar or RPMI with MOPS agar was used for hyphal formation. To evaluate mycelial growth inhibition by inhibitors, a modified 1/10 Sabouraud glucose agar (containing 0.2% bacto peptone, 0.1% glucose, 0.1% KH2PO4, 0.1% MgSO4 7H2O, 1.5% bacto agar, pH unadjusted) was used.

The subject of a further assay is TrCdc42. Kind of assay: Guanine nucleotide exchange assay of TrCdc42-His promoted by TrCdc24 DH-PH (bodipy-FL GTP fluorescence). Type of assay: biochemical, Trichophyton rubrum. The conditions noted are these: for Selectivity between fungal Cdc42 and Rac: comparison of TrCdc42 and TrRac IC50 (Table 1); for IC50: guanine nucleotide exchange of TrCdc42 by TrCdc24, fluorescence at 60 min. As for the experimental part:
(§1) One μM of TrRac or TrCdc42-His was mixed with 0.1 μM bodipy-FL GTP (Thermo Fisher, Waltham, MA, USA) in Buffer A and allowed to equilibrate for 3 min at 20°C–25°C. Ammonium sulfate, EDTA, or recombinant TrCdc24 DH-PH proteins were incubated with the compounds or vehicles alone (final DMSO concentration: 1%) at the indicated concentrations in the reaction buffer for 20 min at room temperature. The reaction was initiated by combining TrRac or TrCdc42/bodipy-FL GTP (100 μL) with Cdc24DH-PH (50 μL) at room temperature. The change in bodipy-FL-GTP fluorescence (excitation: 485 nm, emission: 535 nm) was monitored for 60 min using a Berthold tristar2 LB942.
(§2) Statistical analyses were conducted using Microsoft Excel and Prism 10, GraphPad. All experiments were performed more than three times. Statistical significance was determined using Student’s t test, one-way analysis of variance, and Tukey–Kramer test. IC50 values were ascertained by plotting the fluorescent intensity (% of control) at 60 min using a specific formula: IC50=x2−(x2/x1)^(50−y2/y2−y1)

Another assay has as its system TrRac. Kind of assay: Guanine nucleotide exchange assay of TrRac promoted by TrCdc24 DH-PH (bodipy-FL GTP fluorescence). Type of assay: biochemical, Trichophyton rubrum. The conditions noted are these: fluorescence at 60 min. As for the experimental part: as §1, §2
For a further assay, the system named is T. rubrum. Kind of assay: Invertebrate (silkworm) infection model of dermatophytosis. Type of assay: in vivo, Bombyx mori. The conditions noted are these: conidia (5 × 10^6) injected into silkworm hemolymph. On the procedure:
Eggs from silkworms were procured from Ehime-Sansh Co., Ltd. (Japan) and reared following a method described previously.[86]^,[87] Fifth instar silkworm larvae were nourished with an artificial diet (Silkmate 2S; Ehime-Sanshu Co., Ltd., Japan) overnight.[88]^,[89] Dermatophyte infection was conducted in accordance with a previously outlined procedure.[53] Conidia (5 × 10^6) of T. rubrum were injected into the silkworm hemolymph.

Assay [3] relates to T. rubrum growth on human nail fragments. The experiment in a line: In vitro nail infection assay. It is filed as cell-based, Trichophyton rubrum. The conditions noted are these: 2.6% (60 mM) EHop-016, four applications every 24 h, observed after 36 days at 28°C, versus vehicle. On the procedure:
The conidial suspension (1 × 10^4/10 μL/nail fragment) of T. rubrum was administered to autoclaved nail fragments obtained from an adult volunteer (ethics approval, No. R3-6, Musashino University, Japan) and incubated at 28°C. After 24 h, either the vehicle (30% DMSO/5% Tween 80) or 60 mM EHop-016 was applied to the nail fragment. A total of four applications were administered every 24 h. The nails were examined after 36 days of incubation.

Entries after “also recorded” stand apart in the source; their conditions may differ.

Turning to `C[C@H]1CCC/C=C/[C@@H]2C[C@H](O)C[C@H]2[C@H](O)/C=C/C(=O)O1` [Brefeldin A], the “Effect on conidial germination in T. rubrum” value (shortened to “Effect on conidial germination”) in assay [1] is “did not”. Also, the “Effect on mycelial growth in T. rubrum” value in assay [2] is “did not”.
What is called IC50 is the midpoint of a concentration-inhibition curve. As to `CCn1c2ccccc2c2cc(Nc3ccnc(NCCCN4CCOCC4)n3)ccc21` [EHop-016], in the assay with TrCdc42, the “Selectivity between fungal Cdc42 and Rac” value is listed as “higher selectivity for Cdc42 than for Rac”. The half-inhibitory concentration (IC50) was 40 µM in the assay with TrCdc42, 137 µM in the assay with TrRac and 45 µM in assay [1] (Trichophyton rubrum). Further, the “Survival of silkworms infected with T. rubrum” value in the assay with T. rubrum is given as “significantly extended the survival”. Further, the “T. rubrum growth on human nails” value in assay [3] is listed as “no fungal lawn was observed; also recorded: lesser T. rubrum growth on the nails”.
For `CCn1c2ccccc2c2cc(-n3nncc3-c3ccccc3)ccc21` [MBQ-167], the IC50 (in the assay with TrCdc42; with TrRac; in assay [1] (Trichophyton rubrum)) was greater than 100 µM each time. For the same compound, the “Inhibitory activity in conidial germination inhibition assay” value in assay [1] (at 100 μM) was “did not show any inhibitory activity”.
With `O=C(c1ccccc1)c1ccc2n1CCC2C(=O)O` (centres unmarked) [Ketorolac], the half-maximal inhibitory concentration (IC50) in the assay on TrCdc42 was 889 µM; with TrRac, 1420 µM; in assay [1] (Trichophyton rubrum), 363 µM.
As for `Cc1cc(/C=c2/sc3nc4ccccc4n3c2=O)c(C)n1-c1ccccc1` [ITX3], the 50% inhibitory concentration (IC50) (in the assay with TrCdc42; with TrRac; in assay [1]) was greater than 50 µM each time.
For `Cc1cc2cc(Nc3ccnc(Nc4ccc5[nH]c(C)cc5c4)n3)ccc2[nH]1` [AZA1], the IC50 in the assay on TrCdc42 was 147 µM; in the assay with TrRac it was 127 µM; in assay [1] (Trichophyton rubrum), 127 µM. In addition, the “Effect on conidial germination” value in assay [1] was “hindered”. In addition, the “Effect on mycelial growth in T. rubrum” value in assay [2] is “hindered”.
With `OCCNC1CCCc2c1[nH]c1ccc(-c3ccccc3)cc21` (centres unmarked) [CASIN], the values for the half-maximal inhibitory concentration (IC50) (with TrCdc42; in the assay with TrRac; in assay [1]) were 192 µM, 518 µM and 20 µM, respectively.
`O=c1cc(CN2CCOCC2)occ1OCCCCCSc1ccnc2cc(C(F)(F)F)ccc12` [EHT1864]: the “Selectivity between fungal Cdc42 and Rac” value with TrCdc42 is “higher selectivity for Cdc42 than for Rac”. The half-maximal inhibitory concentration (IC50) is 154 µM in the assay with TrCdc42, greater than 1000 µM in the assay on TrRac and 16 µM in assay [1] (Trichophyton rubrum). Besides, in assay [1], the “Effect on conidial germination” value is on record as “hindered”. For the same compound, in assay [2], the “Effect on mycelial growth in T. rubrum” value is recorded as “hindered”.
Turning to `Cc1cc(C)nc(NS(=O)(=O)c2ccc(NC(=S)NC(=O)COc3ccc(Br)cc3Cl)cc2)n1` [ZCL278], the 50% inhibitory concentration (IC50) (in the assay with TrCdc42; in the assay with TrRac; in assay [1]) was greater than 1000 µM throughout.
For `COc1ccc(C2CC(c3ccccc3)=NN2c2ccc(S(N)(=O)=O)cc2)cc1` (centres unmarked) [ML-141], the IC50 in the assay on TrCdc42 was greater than 1000 µM; in the assay with TrRac it was greater than 1000 µM; in assay [1] it was 1.7 µM.
Rhosin: the “Effect on conidial germination” value in assay [1] is “did not”. Further, the “Effect on mycelial growth in T. rubrum” value in assay [2] is reported as “did not”.
Take NAV2729: the “Effect on conidial germination” value in assay [1] is recorded as “did not”. For the same compound, in assay [2], the “Effect on mycelial growth in T. rubrum” value is “did not”.
Regarding `CCN(CC)CCCC(C)Nc1nc(C)cc(Nc2ccc3nc(C)cc(N)c3c2)n1` (centres unmarked) [NSC23766], the results for the IC50 (in the assay with TrCdc42; in the assay with TrRac; in assay [1] (Trichophyton rubrum)) were 368 µM, 477 µM and 640 µM, respectively. For the same compound, the “Effect on conidial germination” value in assay [1] was “hindered”. In addition, the “Effect on mycelial growth in T. rubrum” value in assay [2] is “hindered”.
